The structures appear in SMILES notation. Counter-ions that a name gives are not always drawn.

Tested on in the first data set: not listed separately
The experiment in a line: appearance of the isolated salt in air (hygroscopicity). The following applies: after lyophilization. The data set is classed as physicochemical. Here is the method:
3 g of bis[4-(Δ^2 -thiazolin-2-yl)aminophenyl]sulphide are taken up in 0.6 ml of 1N HCl and 10 ml of H2 O and the mixture is lyophilized.
For the compound `c1cc(Sc2ccc(NC3=NCCS3)cc2)ccc1NC1=NCCS1` [Example 3, Bis[4-(Δ^2-thiazolin-2-yl)aminophenyl]sulphide HCl salt], the hygroscopicity entry was “Hygroscopic crystals which deliquesce in air”.

For the next data set, the target named is T1, lipoxygenase activity of PMN (Rattus norvegicus, UniProt P12527).
T1 construct: lipoxygenase activity of PMN in rats; endogenous in cells; host or cells: rat PMN (polymorphonuclear leucocytes)
T1 sequence (P12527 1-673): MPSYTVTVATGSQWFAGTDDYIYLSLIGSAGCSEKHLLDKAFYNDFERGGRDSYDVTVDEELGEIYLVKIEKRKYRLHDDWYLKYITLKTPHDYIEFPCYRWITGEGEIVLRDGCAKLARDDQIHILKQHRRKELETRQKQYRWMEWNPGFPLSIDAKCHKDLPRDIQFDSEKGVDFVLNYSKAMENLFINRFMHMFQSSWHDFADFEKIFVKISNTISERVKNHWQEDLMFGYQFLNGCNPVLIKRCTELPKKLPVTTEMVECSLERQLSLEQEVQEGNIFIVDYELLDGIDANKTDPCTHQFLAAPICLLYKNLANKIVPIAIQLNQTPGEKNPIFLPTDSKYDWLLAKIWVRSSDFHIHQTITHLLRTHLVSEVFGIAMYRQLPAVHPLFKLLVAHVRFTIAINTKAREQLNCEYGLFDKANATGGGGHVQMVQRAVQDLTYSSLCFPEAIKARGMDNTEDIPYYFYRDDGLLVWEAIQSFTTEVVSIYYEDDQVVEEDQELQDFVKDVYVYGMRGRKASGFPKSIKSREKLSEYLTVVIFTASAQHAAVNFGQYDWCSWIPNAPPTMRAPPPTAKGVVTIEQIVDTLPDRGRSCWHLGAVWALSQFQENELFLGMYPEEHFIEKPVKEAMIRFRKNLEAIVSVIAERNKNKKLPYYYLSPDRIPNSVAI
The experiment in a line: LTB4 formed after stimulation with Ca-ionophor, determined by reversed phase HPLC, as a measure of the lipoxygenase activity of PMN. The data set is classed as cell-based, rats. To be noted: LTB4 formation, Ca-ionophor stimulated rat PMN. Here is the method:
The pharmacological action of the substances according to the invention was determined by the following method:
The leucotriene B4 (LTB4) formed after stimulation with Ca-ionophor is determined by means of reversed phase HPLC in accordance with the method of Borgeat et al. Proc. Natl. Acad. Sci. USA, 76, 215 (1982) as a measure of the lipoxygenase activity of PMN in rats.
As for `c1cc(Sc2ccc(NC3=NCCS3)cc2)ccc1NC1=NCCS1` [Example 2, Bis[4-(Δ^2-thiazolin-2-yl)aminophenyl]sulphide], the IC50 (commonly the point on the concentration scale where inhibition reaches its midpoint) is 0.349 µM. On the same count and under the same terms, the value for `c1cc(Sc2ccc(NC3=NCCS3)cc2)ccc1NC1=NCCS1` [Example 3, Bis[4-(Δ^2-thiazolin-2-yl)aminophenyl]sulphide HCl salt] was 0.776 µM; that for `c1ccc(C2CSC(Nc3ccc(Sc4ccc(NC5=NC(c6ccccc6)CS5)cc4)cc3)=N2)cc1` (stereo not drawn) [Example 4, Bis[4-(4-phenyl-Δ^2-thiazolin-2-yl)aminophenyl]sulphide] was 0.501 µM. `COC(=O)Cc1cc(NC2=NCCS2)ccc1Sc1ccccc1` [Example 10, Methyl[2-phenylthio-5-(Δ^2-thiazolin-2-yl)amino]phenylacetate]: 0.209 µM corresponded to half-maximal inhibition (IC50). As for `c1ccc(Sc2ccc(NC3=NCCS3)cc2)cc1` [Example 12], the half-maximal inhibitory concentration (IC50) was 0.0978 µM. Regarding `CN1CCSC1=Nc1ccc(Sc2ccc(N=C3SCCN3C)cc2)cc1` [Example 17, Bis[4-(3-methyl-thiazolidin-2-imino)phenyl]sulphide], the 50% inhibitory concentration (IC50) was 0.265 µM. As for `CC1CN=C(Nc2ccc(Sc3ccc(NC4=NCC(C)S4)cc3)cc2)S1` (stereo not drawn) [Example 22, Bis[4-(5-methyl-Δ^2-thiazolin-2-yl)aminophenyl]sulphide], the IC50 is 0.123 µM. Compound `Cc1ccc(S(=O)(=O)Nc2ccc(Sc3ccc(NC4=NCCS4)cc3)cc2)cc1` [Example 29, 4-(Δ^2 -Thiazolin-2-yl)amino-4'-tosylaminodiphenyl sulphide] gave an IC50 of 0.145 µM.

Source of the values: patent publication US4771062A, “Diaryl sulphide derivatives” (Bayer Aktiengesellschaft, priority 1986, dated 1988).
